For data set [1], the system named is Hepatitis C virus. The data set can be described thus: Antiviral activity against Hepatitis C virus H77 genotype 1a infected in human HuH7 cells assessed as observed antiviral potency after 72 hrs by luciferase reporter gene assay. The class given is functional, organism-based, Hepacivirus hominis. The note with it: genotype 1a H77, Huh-7, 72 h.
Data set [2] concerns Hepatitis C virus. The data set can be described thus: Antiviral activity against Hepatitis C virus H77 genotype 1a infected in human HuH7 cells assessed as intrinsic antiviral potency after 72 hrs by luciferase reporter gene assay. The format is functional, organism-based, Hepacivirus hominis. The note with it: genotype 1a H77, Huh-7, 72 h.
The subject of data set [3] is Hepatitis C virus. The data set can be described thus: Antiviral activity against HCV genotype 1b harboring wild type NS5B polymerase infected in human HuH7-Lunet cells by luciferase reporter gene assay. The note with it: Huh-7. The format is functional, organism-based, Hepacivirus hominis.
The test system of data set [4] is Hepatitis C virus. The data set can be described thus: Antiviral activity against HCV genotype 1b harboring NS5B polymerase M423T mutant infected in human HuH7-Lunet cells by luciferase reporter gene assay. The note with it: Huh-7. The class given is functional, organism-based, Hepacivirus hominis.
The nature of data set [5]: Fraction unbound in cell culture medium at 2 uM at pH 7.4 by equilibrium dialysis method. The format is ADME.
Data set [6] is described as follows: Cytotoxicity against human MT4 cells after 5 days by Cell Titre Glo assay. The class given is cell-based.
Data set [7] concerns Hepatitis C virus. The data set can be described thus: Selectivity ratio of EC50 for HCV genotype 1b harboring NS5B polymerase M423T mutant to EC50 for HCV genotype 1b harboring wild type NS5B polymerase. The format is functional, Hepacivirus hominis.
In data set [8] the test system is Hepatitis C virus. The data set can be described thus: Antiviral activity against Hepatitis C virus Con1 genotype 1b infected in human HuH7 cells after 72 hrs by luciferase reporter gene assay. The note with it: isolate Con1, Huh-7, 72 h. The format is functional, organism-based, Hepacivirus hominis.
Data set [9] in a line: Cytotoxicity against human HuH7 cells after 3 days by Cell Titre Glo assay. The format is cell-based, Huh-7.
Data set [10] relates to Hepatitis C virus. The data set can be described thus: Antiviral activity against HCV genotype 1b infected in human patient assessed as log10 reduction in viral RNA in plasma at 750 mg/kg, bid after 3 days. The class given is functional, Hepacivirus hominis.
A short description of data set [11]: Intrinsic cytotoxicity against human MT4 cells after 5 days by Cell Titre Glo assay. The format is cell-based.
Data set [12] in a line: Half life in human patient infected with chronic HCV. The format is ADME, organism-based. The note with it: in vivo.
The nature of data set [13]: Mean residence time in Sprague-Dawley rat at 0.5 mg/kg, iv. Set-up: dose 0.5 mg/kg, route intravenous. The note with it: in vivo. The class given is ADME, organism-based.
Data set [14] concerns Hepatitis C virus. The data set can be described thus: Antiviral activity against HCV infected in human patient assessed as log10 reduction in viral RNA in plasma at 500 mg/kg, qd after 3 days. The format is functional, Hepacivirus hominis.
In data set [15] the test system is Hepatitis C virus. The data set can be described thus: Antiviral activity against Hepatitis C virus H77 genotype 1a infected in human HuH7 cells assessed as plasma adjusted antiviral potency after 72 hrs by luciferase reporter gene assay. The format is functional, organism-based, Hepacivirus hominis. The note with it: genotype 1a H77, Huh-7, Plasma.
A short description of data set [16]: Lipophilicity, log D of the compound by chromatography. The class given is physicochemical.
In data set [17] the test system is Hepatitis C virus. The data set can be described thus: Antiviral activity against HCV genotype 1 infected in human patient assessed as log10 reduction in viral RNA in plasma at 700 mg/kg, bid after 8 days. The class given is functional, Hepacivirus hominis.
A short description of data set [18]: Mean residence time in Sprague-Dawley rat at 1 mg/kg, iv. The class given is ADME, organism-based. Set-up: dose 1 mg/kg, route intravenous. The note with it: in vivo.
Data set [19] is described as follows: Mean residence time in Sprague-Dawley rat at 0.4 mg/kg, iv. The note with it: in vivo. The class given is ADME, organism-based. Also noted: dose 0.4 mg/kg, route intravenous.

Some results are limits rather than exact numbers.

In the case of `CC1=CC[C@H](C(=O)N(c2cc(C#CC(C)(C)C)sc2C(=O)O)C(C)C)CC1`, the EC50 with Hepatitis C virus [1] was 31 nM; in the data set on Hepatitis C virus [2], 2.2 nM; in the data set with Hepatitis C virus [3], 8 nM; with Hepatitis C virus [4], 40 nM. This compound also registered a fraction unbound at 2 µM in data set [5] of 0.07. Further, the CC50 at 120 h in data set [6] was greater than 20000 nM. Besides, in the data set with Hepatitis C virus [7], the “Ratio EC50” value is listed as 5.
Regarding `CC(C)(C)C#Cc1cc(N(C(=O)[C@H]2CC[C@H](C)CC2)[C@H]2CC[C@H](O)CC2)c(C(=O)O)s1` [LOMIBUVIR], the EC50 in the data set on Hepatitis C virus [8] is 6 nM; in the data set on Hepatitis C virus [1], 13 nM; in the data set on Hepatitis C virus [2], 2.8 nM. This compound also gave a fraction unbound at 2 µM in data set [5] of 0.19. Further, in [9], the CC50 at 72 h was no less than 20000 nM. Further, the CC50 at 120 h in data set [6] was greater than 20000 nM. Besides, in the data set on Hepatitis C virus [10], the FC was determined as 3.7.
Turning to `CC1=CC[C@H](C(=O)N(c2cc(C#CC(C)(C)C)sc2C(=O)O)[C@H]2CC[C@](O)(CO[C@H]3CCOC3)CC2)CC1` [RADALBUVIR], the EC50 in the data set with Hepatitis C virus [1] came to 11 nM; in the data set on Hepatitis C virus [2], 2.9 nM; in the data set on Hepatitis C virus [3], 6 nM; in the data set with Hepatitis C virus [4] it was 14 nM; in the data set with Hepatitis C virus [15] it was 128 nM. Also, the CC50 at 120 h in data set [11] was 12100 nM; in data set [6], greater than 20000 nM. This compound had a half-life in data set [12] of 6 h. The compound also yielded an MRT in [13] of 2.7 h. In addition, in the data set on Hepatitis C virus [14], the FC is 3.6. Further, in the data set with Hepatitis C virus [7], the “Ratio EC50” value was 2.
Take `CC(C)(C)C#Cc1cc(N(C(=O)[C@H]2CC[C@H](C)CC2)[C@H]2CC[C@](O)(CO[C@H]3CCOC3)CC2)c(C(=O)O)s1`: the figures for the CC50 at 120 h in data set [11] and in [6] were 8980 nM and greater than 20000 nM, respectively. For the same compound, the concentration for a half-maximal effect (EC50) in the data set with Hepatitis C virus [2] was determined as 2.2 nM; in the data set with Hepatitis C virus [3] it was 12 nM; in the data set on Hepatitis C virus [4] it was 47 nM; in the data set on Hepatitis C virus [15], 208 nM. The MRT in data set [13] came out at 3.8 h. Further, the chromatographic logD in data set [16] stood at 2.4. The “Ratio EC50” value in the data set on Hepatitis C virus [7] stood at 4.
For `CCc1cc(CC[C@]2(C3CCCC3)CC(O)=C(Cc3nc4nc(C)cc(C)n4n3)C(=O)O2)cc(CC)n1` [FILIBUVIR], the FC in the data set on Hepatitis C virus [17] worked out at 2.3.
Consider `CC(C)(C)C#Cc1cc(N(C(=O)[C@H]2CC[C@H](C)CC2)[C@H]2CC[C@H](Oc3nccs3)CC2)c(C(=O)O)s1`, for which the EC50 in the data set with Hepatitis C virus [1] amounted to 84 nM; in the data set with Hepatitis C virus [2], 1.5 nM. In data set [18], the MRT was found to be 2.8 h. Moreover, the CC50 at 120 h in data set [6] was greater than 20000 nM.
As to `CC(C)N(c1cc(C#CC(C)(C)C)sc1C(=O)O)C(=O)[C@H]1CC[C@H](C)CC1`, the EC50 in the data set with Hepatitis C virus [2] stood at 5.5 nM; with Hepatitis C virus [4], 293 nM. The fraction unbound at 2 µM in data set [5] is 0.06. Besides, the CC50 at 72 h in data set [9] is no less than 20000 nM. Moreover, the CC50 at 120 h in data set [6] is greater than 20000 nM. The “Ratio EC50” value in the data set with Hepatitis C virus [7] was found to be 11.
With `CC(C)(C)C#Cc1cc(N(C(=O)[C@H]2CC[C@H](C)CC2)[C@H]2CC[C@H](Oc3ccc4nccn4n3)CC2)c(C(=O)O)s1`, the results for the EC50 in the data set on Hepatitis C virus [1], with Hepatitis C virus [2] and with Hepatitis C virus [15] were 192 nM, 1.3 nM and 1130 nM, respectively. The CC50 at 120 h in data set [11] is 133 nM; in data set [6], greater than 20000 nM. Moreover, the chromatographic logD in data set [16] was 2.4. Further, in data set [19], the MRT came to 6.2 h.
As to `CC(C)(C)C#Cc1cc(N(C(=O)[C@H]2CC[C@H](C)CC2)[C@H]2CC[C@H](Oc3cccnc3)CC2)c(C(=O)O)s1`, the EC50 was found to be 128 nM in the data set with Hepatitis C virus [1] and 3.6 nM in the data set with Hepatitis C virus [2]. In addition, the MRT in data set [18] worked out at 3.4 h. In addition, the fraction unbound at 2 µM in data set [5] turned out to be 0.03. The compound also had a CC50 at 120 h in data set [6] greater than 20000 nM.
As to `CC(C)(C)C#Cc1cc(N(C(=O)[C@H]2CC[C@H](C)CC2)[C@H]2CC[C@H](Oc3ccccn3)CC2)c(C(=O)O)s1`, the EC50 in the data set with Hepatitis C virus [1] was 297 nM; in the data set on Hepatitis C virus [2], 2.5 nM; with Hepatitis C virus [15], 1050 nM. For the same compound, the CC50 at 120 h is 100 nM in data set [11] and greater than 20000 nM in [6]. In addition, the MRT in [18] is 5 h. In addition, the chromatographic logD in data set [16] worked out at 3.

Source of the values: ChEMBL document CHEMBL3120092, “Discovery of GS-9669, a thumb site II non-nucleoside inhibitor of NS5B for the treatment of genotype 1 chronic hepatitis C infection” (J Med Chem, 2014).
